The results in this text go back to patent US4076814A, “Preventive and curative compositions against mycoplasmosis” (Sankyo Company Limited, priority 1975, dated 1978).

Values after ≈ are worked out from the molar mass of the structure shown.

Common to all, as to format: cell-based
In one assay the test system is Mycoplasma gallisepticum. The assay is described as follows: Antimicrobial test, conventional agar plate dilution method, Mycoplasma gallisepticum. The following applies: Mycoplasmoides gallisepticum, read-out: Minimum Inhibitory Concentration, Mycoplasma gallisepticum. The text has this: (§1) ANTIMICROBIAL TEST AGAINST THREE STRAINS OF MYCOPLASMA
(§2) The test was effected by a conventional agar plate dilution method using the indicated strains of mycoplasma. The dithiocarbamic acid derivatives as shown below with Compound Nos. were employed in the test.

A further assay relates to Mycoplasma hyorhinis. The experiment in a line: Antimicrobial test, conventional agar plate dilution method, Mycoplasma hyorhinis. To be noted: Mycoplasma, read-out: Minimum Inhibitory Concentration, Mycoplasma hyorhinis.
From the text: as §1, §2

The test system of a further assay is Mycoplasma pulmonis. The experiment in a line: Antimicrobial test, conventional agar plate dilution method, Mycoplasma pulmonis. To be noted: Mycoplasma, read-out: Minimum Inhibitory Concentration, Mycoplasma pulmonis.
From the text: as §1, §2

`CC(C)(C)c1cc(C(SC(=S)N2CCCCC2)c2ccccc2)cc(C(C)(C)C)c1O` (stereo not drawn) [compound 225, 4-Hydroxy-3,5-di-t-butyl-α-phenylbenzyl 1-piperidinecarbodithioate]: the figures for the MIC in the assay on Mycoplasma gallisepticum, in the assay on Mycoplasma hyorhinis and with Mycoplasma pulmonis were 0.39 µg/mL (≈ 0.856 µM), 0.39 µg/mL (≈ 0.856 µM) and 0.2 µg/mL (≈ 0.439 µM), respectively.

For `Cc1ccc(C(=O)CCSC(=S)N(C)C)cc1` [compound 55, 2-(p-Toluoyl)ethyl dimethyldithiocarbamate], the MIC with Mycoplasma gallisepticum was 0.2 µg/mL (≈ 0.748 µM); with Mycoplasma hyorhinis, 0.2 µg/mL (≈ 0.748 µM); with Mycoplasma pulmonis, 0.39 µg/mL (≈ 1.46 µM).

Consider `CC(=O)C(CSC(=S)N(C)C)c1ccccc1` (stereo not drawn) [compound 164, 2-Acetyl-2-phenylethyl dimethyldithiocarbamate], for which the MIC with Mycoplasma gallisepticum, with Mycoplasma hyorhinis and in the assay on Mycoplasma pulmonis was 0.1 µg/mL (≈ 0.374 µM) each time.

Take `Cc1cc2c(c(O)c1CSC(=S)N(C)C)C1OCC34CCCC(C)(C)C3CCC(C)(O2)C14` (stereo not drawn) [compound 265, 16-Dimethylthiocarbamoylthiomethylsiccanin]: the MIC in the assay on Mycoplasma gallisepticum, in the assay on Mycoplasma hyorhinis and with Mycoplasma pulmonis was 0.39 µg/mL (≈ 0.82 µM) each time.

In the case of `Cc1cc2c(c(O)c1CSC(=S)N1CCN(C)CC1)C1OCC34CCCC(C)(C)C3CCC(C)(O2)C14` (stereo not drawn) [compound 272, 16-(4-Methyl-1-piperazinethiocarbonylthiomethyl)-siccanin], the MIC with Mycoplasma gallisepticum, in the assay with Mycoplasma hyorhinis and with Mycoplasma pulmonis was 0.39 µg/mL (≈ 0.735 µM) throughout.

For the compound `CCN(CC)C(=S)SCc1cc(CO)cc(OC)c1O` [compound 242, 2-Hydroxy-3-methoxy-5-hydroxymethylbenzyl diethyldithiocarbamate], the MIC with Mycoplasma gallisepticum, with Mycoplasma hyorhinis and in the assay on Mycoplasma pulmonis was 0.1 µg/mL (≈ 0.317 µM) throughout.

With `O=c1cc(CO)oc(CSC(=S)N2CCCCC2)c1O` [compound 261, 5-Hydroxy-2-hydroxymethyl-4-oxo-4H-pyran-6-ylmethyl-1-piperidinecarbodithioate], the MIC in the assay with Mycoplasma gallisepticum, in the assay with Mycoplasma hyorhinis and in the assay on Mycoplasma pulmonis was 3.13 µg/mL (≈ 9.92 µM) in each case.

In the case of `O=C(CCSC(=S)N1CCOCC1)c1ccccc1[N+](=O)[O-]` [compound 61, 2-(o-Nitrobenzoyl)ethyl 4-morpholinecarbodithioate], the MIC in the assay with Mycoplasma gallisepticum is 0.1 µg/mL (≈ 0.294 µM); with Mycoplasma hyorhinis, 1.56 µg/mL (≈ 4.58 µM); with Mycoplasma pulmonis, 0.39 µg/mL (≈ 1.15 µM).

Take `CCN(CC)C(=S)SCc1cc(C(C)(C)C)c(O)c(C(C)(C)C)c1` [compound 212, 4-Hydroxy-3,5-di-t-butylbenzyl diethyldithiocarbamate]: the MIC with Mycoplasma gallisepticum, in the assay with Mycoplasma hyorhinis and with Mycoplasma pulmonis was 1.56 µg/mL (≈ 4.24 µM) throughout.

On to `CCCCCCCCCCC(CSC(=S)N(C)C)C(C)=O` (stereo not drawn) [compound 152, 2-Acetyldodecyl dimethyldithiocarbamate], for which the MIC is 0.1 µg/mL (≈ 0.302 µM) in the assay on Mycoplasma gallisepticum, 0.39 µg/mL (≈ 1.18 µM) in the assay on Mycoplasma hyorhinis and 0.1 µg/mL (≈ 0.302 µM) with Mycoplasma pulmonis.

On to `CC(C)(C)c1cc(CSC(=S)N2CCCCCC2)cc(C(C)(C)C)c1O` [compound 220, 4-Hydroxy-3,5-di-t-butylbenzyl 1-hexamethyleneiminecarbodithioate], for which the MIC in the assay with Mycoplasma gallisepticum, with Mycoplasma hyorhinis and with Mycoplasma pulmonis was 0.78 µg/mL (≈ 1.98 µM) throughout.

In the case of `CC(=O)C(C)CSC(=S)N(C)C` (stereo not drawn) [Compound No. 147, 2-Acetylpropyl dimethyldithiocarbamate], the MIC in the assay with Mycoplasma gallisepticum, with Mycoplasma hyorhinis and in the assay on Mycoplasma pulmonis was 0.05 µg/mL (≈ 0.243 µM) in each case.

On to `CCCc1cc(CSC(=S)N(C)C)cc(CN(C)C)c1O.Cl` [compound 238, 4-Hydroxy-3-dimethylaminomethyl5-n-propylbenzyl dimethyldithiocarbamate hydrochloride], for which the MIC in the assay with Mycoplasma gallisepticum, with Mycoplasma hyorhinis and with Mycoplasma pulmonis was 0.2 µg/mL in each case.

Regarding `O=C1CCCC1CSC(=S)N1CCOCC1` (stereo not drawn) [compound 3, 2-Oxocyclopentylmethyl 4-morpholinecarbodithioate], the MIC is 0.2 µg/mL (≈ 0.771 µM) in the assay with Mycoplasma gallisepticum, 0.2 µg/mL (≈ 0.771 µM) in the assay on Mycoplasma hyorhinis and 0.1 µg/mL (≈ 0.386 µM) with Mycoplasma pulmonis.

Turning to `COc1cc(CSC(=S)N2CCOCC2)cc(OC)c1O` [compound 230, 4-Hydroxy-3,5-dimethoxybenzyl 4-morpholinecarbodithioate], the MIC in the assay with Mycoplasma gallisepticum was determined as 1.56 µg/mL (≈ 4.74 µM); with Mycoplasma hyorhinis it was 0.78 µg/mL (≈ 2.37 µM); in the assay with Mycoplasma pulmonis it was 1.56 µg/mL (≈ 4.74 µM).

With `CCC(=O)CCSC(=S)N1CCOCC1` [compound 101, 2-Propionylethyl 4-morphonlinecarbodithioate], the MIC with Mycoplasma gallisepticum, in the assay on Mycoplasma hyorhinis and in the assay on Mycoplasma pulmonis was 0.1 µg/mL (≈ 0.404 µM) throughout.

As for `Oc1c(Cl)cc(CSC(=S)N2CCOCC2)cc1Cl` [compound 235, 4-Hydroxy-3,5-dichlorobenzyl 4-morpholinecarbodithioate], the MIC in the assay with Mycoplasma gallisepticum, in the assay with Mycoplasma hyorhinis and with Mycoplasma pulmonis was 1.56 µg/mL (≈ 4.61 µM) throughout.

Consider `CCN(CC)C(=S)SCc1cc(C)cc(C)c1O` [compound 198, 2-Hydroxy-3,5-dimethylbenzyl diethyldithiocarbamate], for which the MIC in the assay on Mycoplasma gallisepticum is 0.39 µg/mL (≈ 1.38 µM); in the assay on Mycoplasma hyorhinis, 0.2 µg/mL (≈ 0.706 µM); in the assay with Mycoplasma pulmonis, 0.39 µg/mL (≈ 1.38 µM).

As for `CCC(C)c1cc(CSC(=S)N(C)C)cc(CSC(=S)N(C)C)c1O` (stereo not drawn) [compound 250, 4-Hydroxy-5-dimethylthiocarbamoylthiomethyl-3-sec-butylbenzyl dimethyldithiocarbamate], the MIC with Mycoplasma gallisepticum, in the assay with Mycoplasma hyorhinis and in the assay with Mycoplasma pulmonis was 0.2 µg/mL (≈ 0.48 µM) in each case.

Regarding `CCC(=O)CCSC(=S)N(CC)CC` [compound 99, 2-Propionylethyl diethyldithiocarbamate], the MIC with Mycoplasma gallisepticum, with Mycoplasma hyorhinis and with Mycoplasma pulmonis was 0.05 µg/mL (≈ 0.214 µM) throughout.

As for `CCN(CC)C(=S)SCc1cc(C)c(O)cc1C(C)C` [Compound No. 202, 4-Hydroxy-2-isopropyl-5-methylbenzyl diethyldithyldithiocarbamate], the MIC with Mycoplasma gallisepticum, with Mycoplasma hyorhinis and with Mycoplasma pulmonis was 0.1 µg/mL (≈ 0.321 µM) in each case.

For the compound `Cc1cc(CSC(=S)N2CCN(C)CC2)cc(C)c1O.Cl` [compound 196, 4-Hydroxy-3,5-dimethylbenzyl 4-methyl-1-piperazinecarbodithioate hydrochloride], the MIC in the assay on Mycoplasma gallisepticum was 1.56 µg/mL; in the assay with Mycoplasma hyorhinis, 0.39 µg/mL; in the assay with Mycoplasma pulmonis, 1.56 µg/mL.

Take `CC(=O)C(C)CSC(=S)N1CCCCC1` (stereo not drawn) [compound 149, 2-Acetylpropyl 1-piperidinecarbodithioate]: the MIC in the assay with Mycoplasma gallisepticum turned out to be 0.2 µg/mL (≈ 0.815 µM); in the assay with Mycoplasma hyorhinis, 0.05 µg/mL (≈ 0.204 µM); with Mycoplasma pulmonis it was 0.2 µg/mL (≈ 0.815 µM).

Take `Cc1cc(CSC(=S)N(C)C)cc(CN(C)C)c1O` [compound 236, 4-Hydroxy-3-dimethylaminomethyl-5-methylbenzyl dimethyldithiocarbamate]: the MIC with Mycoplasma gallisepticum, in the assay with Mycoplasma hyorhinis and in the assay on Mycoplasma pulmonis was 0.2 µg/mL (≈ 0.67 µM) in each case.

For the compound `CCN(CC)C(=S)SCC1CCCC1=O` (stereo not drawn) [Compound No. 2, 2-Oxocyclopentylmethyl diethyldithiocarbamate], the MIC in the assay on Mycoplasma gallisepticum, in the assay on Mycoplasma hyorhinis and in the assay on Mycoplasma pulmonis was 0.1 µg/mL (≈ 0.407 µM) throughout.

Regarding `CCN(CC)C(=S)SCc1cc(CN(C)C)c(O)c(C(C)(C)C)c1` [compound 241, 4-Hydroxy-3-dimethylaminomethyl-5-t-butylbenzyl diethyldithiocarbamate], the MIC came to 0.78 µg/mL (≈ 2.12 µM) in the assay with Mycoplasma gallisepticum, 0.39 µg/mL (≈ 1.06 µM) in the assay with Mycoplasma hyorhinis and 0.39 µg/mL (≈ 1.06 µM) with Mycoplasma pulmonis.
